Source: patent publication US20240366612A1, “COMPOUNDS AND METHODS FOR MODULATING NUCLEIC ACID SPLICING” (REMIX THERAPEUTICS INC., priority 2021, published 2024)
pIC50: −log10 of the molar value.

How the values were obtained:
[1] = test system: HiBiT-tagged MYB protein in K562 cells; test: HiBiT protein abundance assay, MYB; type: cell-based, human; conditions: HiBiT-modified K562 cells, 24 hours, luminescence
Protocol: (§1) Compounds described herein were used to screen for effects on quantitative protein abundance using a HiBit assay system (Promega). Quantitative protein abundance was determined by measuring the protein levels of HiBit-tagged protein targets expressed in cell culture via luminescence using the Nano-Glo HiBiT Lytic Detection System, which uses a split complementation assay format to reconstitute NanoBiT enzyme to generate a luminescent signal. A protein abundance assay was developed such that endogenous protein targets could be modified with the HiBiT peptide tag and their abundance could be assessed after compound treatment. Briefly, K562 cell lines containing a HiBiT-modification were treated with various compounds described herein (e.g., compounds of Formulas (I), (II), or (III)). After treatment for 24 hours, the protein abundance of a specific target was determined by measuring luminescence.
(§2) • Promega Nano-Glo HiBiT Lytic Detection System (cat #N3030) • Corning 384-well TC-treated microplates (cat #3570) • Synthego Engineered Cells Knock-In Clones
(§3) Cells were maintained in IMDM with 10% FBS. Before the assay, cells were diluted with […] growth media (IMDM+1% FBS media) and were seeded in a 384-well plate at a density of 10000 cells/well (for each cell line listed in Table 5). Each compound was prepared as a 10-point 3-fold serial dilution in DMSO with the top dose at a final concentration of 10 μM in the well. Unmodified K562 cells were added at the previously specified density with DMSO to serve as an assay baseline and positive control (PC) and DMSO only with the respective modified cell lines was added to the negative control (NC) columns. Final DMSO concentration was kept at or below 0.25%. Treated cell plates were placed in an incubator at 37° C. with 5% CO2 for 24 hours. After 24 hours, 25 μL of Complete HiBit Lytic reagent was added to each well at room temperature (e.g. one plate requiring 10 mL Lytic Buffer, 100 μL LgBiT Protein, 200 μL Lytic Substrate), shaken for 5 minutes at 600 RPM, then left to sit for 10 minutes for signal to stabilize before reading on a Spark Cyto plate reader (Tecan) with a 500 ms measurement time.
(§4) To determine compound effects on protein abundance of each target in Table 5, the percent response for each respective cell line was calculated at each compound concentration as follows:
(§5) For the normalized response at each concentration, a four-parameter logistical regression was fit to the data and the response was interpolated at the 50% value to determine a concentration for protein abundance at 50% (IC50) the untreated control.

[2] = Cell Titer Glo 2.0 cell viability assay; conditions: human, K562 cells
[3] = test system: HiBiT-tagged Target C protein in K562 cells; test: HiBiT protein abundance assay, Target C; type: cell-based, human; conditions: HiBiT-modified K562 cells, 24 hours, luminescence
Protocol: as §1, §2, §3, §4, §5

[4] = test system: HiBiT-tagged HTT protein in K562 cells; test: HiBiT protein abundance assay, HTT; type: cell-based, human; conditions: HiBiT-modified K562 cells, 24 hours, luminescence
Protocol: as §1, §2, §3, §4, §5

| Compound | pIC50 [1] | GI50 at 72 h [2] [µM] | pIC50 [3] | pIC50 [4] |
| --- | --- | --- | --- | --- |
| Cc1cn2cc(-n3cnc4nc(N5CCNCC5)sc4c3=O)cc(C(F)(F)F)c2n1 [Compound 229, 6-(2-methyl-8-(trifluoromethyl)imidazo[1,2-a]pyridin-6-yl)-2-(piperazin-1-yl)thiazolo[4,5-d]pyrimidin-7(6H)-one] | < 5.00 | > 10 | < 5.00 | < 5.00 |
| Cc1cn2cc(-n3cnc4nc(N5CCN(C)CC5)sc4c3=O)cc(C(F)(F)F)c2n1 [Compound 230, 6-(2-methyl-8-(trifluoromethyl)imidazo[1,2-a]pyridin-6-yl)-2-(4-methylpiperazin-1-yl)thiazolo[4,5-d]pyrimidin-7(6H)-one] | < 5.00 | > 10 | < 5.00 | < 5.00 |
| Cc1cn2nc(-c3nc4ncn(C5CCNCC5)c(=O)c4s3)cc(C)c2n1 [Compound 231, 2-(2,8-dimethylimidazo[1,2-b]pyridazin-6-yl)-6-(piperidin-4-yl)thiazolo[4,5-d]pyrimidin-7(6H)-one] | 6.00 to 7.00 | 1 to 10 | 6.00 to 7.00 | 6.00 to 7.00 |
| Cc1cn2cc(-c3nc4ncn(C5CCNCC5)c(=O)c4s3)cc(F)c2n1 [Compound 232, 2-(8-fluoro-2-methylimidazo[1,2-a]pyridin-6-yl)-6-(piperidin-4-yl)thiazolo[4,5-d]pyrimidin-7(6H)-one] | 6.00 to 7.00 | 0.1 to 1 | 6.00 to 7.00 | > 7.00 |
| Cc1cc(-c2nc3ncn(C4CCNCC4)c(=O)c3s2)cc2cn(C)nc12 [Compound 233, 2-(2,7-dimethyl-2H-indazol-5-yl)-6-(piperidin-4-yl)thiazolo[4,5-d]pyrimidin-7(6H)-one] | > 7.00 | 0.1 to 1 | > 7.00 | > 7.00 |
| Cc1cc(-c2nc3ncn(C4CCN(C)CC4)c(=O)c3s2)cc2cn(C)nc12 [Compound 234, 2-(2,7-dimethyl-2H-indazol-5-yl)-6-(1-methylpiperidin-4-yl)thiazolo[4,5-d]pyrimidin-7(6H)-one] | > 7.00 | 0.1 to 1 | 6.00 to 7.00 | 6.00 to 7.00 |
| Cc1cn2cc(-c3cc4ncn(C5CCNCC5)c(=O)c4s3)cc(F)c2n1 [Compound 235, 6-(8-fluoro-2-methylimidazo[1,2-a]pyridin-6-yl)-3-(piperidin-4-yl)thieno[3,2-d]pyrimidin-4(3H)-one] | 6.00 to 7.00 | 0.1 to 1 | 6.00 to 7.00 | 6.00 to 7.00 |
| Cc1cc(-c2cc3ncn(C4CCNCC4)c(=O)c3s2)cc2cn(C)nc12 [Compound 236, 6-(2,7-dimethyl-2H-indazol-5-yl)-3-(piperidin-4-yl)thieno[3,2-d]pyrimidin-4(3H)-one] | > 7.00 | 0.1 to 1 | 6.00 to 7.00 | > 7.00 |
| Cc1cc(-c2cc3ncn(C4CCN(C)CC4)c(=O)c3s2)cc2cn(C)nc12 [Compound 237, 6-(2,7-dimethyl-2H-indazol-5-yl)-3-(1-methylpiperidin-4-yl)thieno[3,2-d]pyrimidin-4(3H)-one] | > 7.00 | 0.1 to 1 | 6.00 to 7.00 | 6.00 to 7.00 |
| Cc1cn2nc(-c3cc4ncn(C5CCNCC5)c(=O)c4s3)cc(C)c2n1 [Compound 238, 6-(2,8-dimethylimidazo[1,2-b]pyridazin-6-yl)-3-(piperidin-4-yl)thieno[3,2-d]pyrimidin-4(3H)-one] | 6.00 to 7.00 | 1 to 10 | 5.00 to 6.00 | 6.00 to 7.00 |
| Cc1cn2nc(-c3cc4ncn(C5CCN(C)CC5)c(=O)c4s3)cc(C)c2n1 [Compound 239, 6-(2,8-dimethylimidazo[1,2-b]pyridazin-6-yl)-3-(1-methylpiperidin-4-yl)thieno[3,2-d]pyrimidin-4(3H)-one] | 5.00 to 6.00 | 1 to 10 | < 5.00 | 5.00 to 6.00 |
